{"source": "patent US9364457B2", "about": "“Method for manufacturing composition for lowering blood lipid and elevating high-density lipoprotein” (SunWay Biotech Co., Ltd., priority 2011, dated 2016)", "key": {"[1]": {"test_system": "lipid plaque on arterial vascular walls in the thoracic cavity", "assay": "Lipid plaque staining in arteries of high cholesterol diet animals", "format": "in vivo, hamsters", "conditions": "high cholesterol diet for eight weeks, human-equivalent per day: MK 2.89 mg, MS 9.82 mg, AF 1.43 mg", "experimental": "Firstly, the experiment utilizes hamsters feed with high cholesterol diet as experimental animals, which are then feed with MS, AF, MS+AF, and MK for 8 weeks, and then each of cholesterol parameters in blood of the hamsters are analyzed. The cholesterol parameters include total cholesterol (TC), triglyceride (TG), high density lipoprotein cholesterol (HDL-C), low density lipoprotein cholesterol (LDL-C), ratio of LDL-C to HDL-C, and malondialdehyde (MDA). The amount of the MK taken by the experimental animals is equivalent to 2.89 mg taken by an adult human per day. Additionally, a normal diet group is referred to as NOR, and a high cholesterol diet group is referred to as HC.\nAnother important indicator for evaluating atherosclerosis is the analysis of lipid plaque staining in arteries, and the results of lipid plaque staining can indicate that whether lipid plaque deposits on arterial vascular walls. Large amounts of lipid with over-oxidation can cause bulk deposition of foam cells, and then the vascular walls lose elasticity and large amounts of lipid plaque are deposited, so as to lead to atherosclerosis. Referring to FIG. 11, which is a diagram of quantitative results of the lipid plaque staining experiment."}, "[2]": {"test_system": "hamsters feed with high cholesterol diet", "assay": "Cholesterol parameters in blood of hamsters fed high cholesterol diet", "format": "in vivo", "conditions": "ratio of LDL-C to HDL-C, hamsters on high cholesterol diet, 8 weeks", "protocol": "Additionally, a composition containing monacolin K is utilized as a comparison group, which is called as MK for abbreviation.\nFirstly, the experiment utilizes hamsters feed with high cholesterol diet as experimental animals, which are then feed with MS, AF, MS+AF, and MK for 8 weeks, and then each of cholesterol parameters in blood of the hamsters are analyzed. The cholesterol parameters include total cholesterol (TC), triglyceride (TG), high density lipoprotein cholesterol (HDL-C), low density lipoprotein cholesterol (LDL-C), ratio of LDL-C to HDL-C, and malondialdehyde (MDA). […] Additionally, a normal diet group is referred to as NOR, and a high cholesterol diet group is referred to as HC."}, "[3]": {"test_system": "cholesterol biosynthesis", "assay": "Cell experiment on inhibition of cholesterol biosynthesis", "format": "cell-based", "conditions": "cells treated with the same concentration, 100 ppb", "description": "In order to compare the inhibitory effect of cholesterol biosynthesis by monascin, ankaflavin and monacolin K, the present invention applies a cell experiment and treats cells with monascin, ankaflavin and monacolin K with the same concentration (100 ppb) for researching the influence of these ingredients on the cholesterol biosynthesis."}}, "data": [{"compound": "CC[C@H](C)C(=O)O[C@H]1C[C@@H](C)C=C2C=C[C@H](C)[C@H](CC[C@@H]3C[C@@H](O)CC(=O)O3)[C@H]21", "note": "[MK, monacolin K]", "values": [{"measurement": "amount of lipid plaque on arterial vascular walls (lipid plaque staining, FIG. 11)", "setting": "[1]", "value": "can lower the amount of lipid plaque"}, {"measurement": "LDL/HDL", "setting": "[2]", "value": 0.489}, {"measurement": "inhibition of cholesterol biosynthesis (FIG. 12)", "setting": "[3]", "value": "weakest effect"}]}]}
